Data as given in patent publication US6369109B1, “Betulinic acid and derivatives thereof useful for the treatment of neuroectodermal tumor” (Deutsches Krebsforschungszentrum Stiftung des Offentlichen …, priority 1998, dated 2002).

Experiments:
Type in all cases: cell-based, human
[1] = tested on: CD95-L mRNA in SH-EP neuroblastoma cells; test: CD95-L mRNA expression by RT-PCR; details: 5 and 10 μg/ml betulinic acid; 0.5 μg/ml doxorubicin 24 h; FIG. 3A
Experimental: Total RNA was prepared using the Qiagen total RNA kit (Qiagen, Hilden, Germany). RNA was converted to cDNA by reverse transcription and amplified for 38 cycles by PCR in a thermocycler (Stratagene, Heidelberg, Germany) using the Gene Amplification RNA-PCR kit (Perkin-Elmer, Branchburg, N.J.) following the manufacturer's instructions. Primers used for amplification of the CD95-L fragment are according to the sequence of human CD95-L (Suda et al., 1995, Cell 75:1169-1178; Herr et al., 1996, Cell Death Diff., 5:299-305). Expression of β-actin (MWG-Biotech, Ebersberg, Germany) was used as an internal standard for RNA integrity and equal gel loading. PCR products were run at 60 V for 2 h on a 1.5% agarose gel stained with ethidium bromide and visualized by UV illumination.
SH-EP neuroblastoma cells were incubated with 5 and 10 μg/ml betulinic acid for the indicated times or with 0.5 μg/ml doxorubicin for 24 h. CD95-L mRNA expression was determined by RT-PCR. Expression of μ-actin was used to control RNA integrity and equal gel loading.

[2] = tested on: doxorubicin-resistant SH-EP^DoxoR cells; test: Specific apoptosis in resistant cells, FACS of propidium iodide-stained nuclei; details: 10 μg/ml betulinic acid or 0.5 μg/ml doxorubicin, 72 h; FIG. 6A
Source text: (§1) Neuroblastoma (SH-EP, IMR-32, Kelly, and LAN-5, kindly provided by Professor M. Schwab, German Cancer Research Center, Heidelberg, Germany), medulloblastoma cells (Daoy, kindly provided by Dr. T. Pietsch, Department of Neuropathology, University of Bonn Medical Center, Bonn, Germany), Ewing's sarcoma cells (A17/95, kindly provided by Dr. U. Anderer, Institute of Pathology, Humboldt University, Berlin, Germany), melanoma (A-378), breast carcinoma (MCF-71), colon carcinoma (HT-29), small cell lung carcinoma (H-126), renal cell carcinoma (KTCTL-26, kindly provided by H. Lörke, German Cancer Research Center, Heidelberg, Germany) and T-cell leukemia (CEM) cells were cultured in RPMI 1640 (Life Technologies, Inc., Eggenstein, Germany) supplemented with 10% heat-inactivated fetal bovin serum (FCS) from Conco. […]
(§2) Quantification of DNA fragmentation was performed by FACS analysis of propidium iodide stained nuclei as described in Nicoletti et al, 1991, J. Immunol. […] Cells were analyzed for DNA content by flow. cytometry (FACScan, Becton Dickinson, Heidelberg, Germany) using CELLQuest software. […] Cells were analyzed by flow cytometry (FAC-Scan. Becton Dickinson) using CELLQuest software.
(§3) SH-EP neuroblastoma cells (▪). […] Specific apoptosis was determined and calculated as described in the legend to FIG. 1A. […]

[3] = tested on: CD95-resistant SH-EP^CD95R cells; test: as above; details: 10 μg/ml betulinic acid or 0.5 μg/ml doxorubicin, 72 h; FIG. 6A
Source text: as §1, §2, §3

With `COc1cccc2c1C(=O)c1c(O)c3c(c(O)c1C2=O)C[C@@](O)(C(=O)CO)C[C@@H]3O[C@H]1C[C@H](N)[C@H](O)[C@H](C)O1` [doxorubicin] the “CD95-L mRNA induction” value [1] was “strongly up-regulated CD95-L mRNA”, the “response of doxorubicin-resistant cells (specific apoptosis)” value [2] was “partially resistant to doxorubicin” and the “response of anti-CD95-resistant cells (specific apoptosis)” value [3] was “partially resistant to doxorubicin”.
